Reference: patent US20230348450A1, “CARBOXYLIC ACID-CONTAINING COMPOUNDS AS MODULATORS OF BIS-PHOSPHOGLYCERATE MUTASE FOR THE TREATMENT OF SICKLE CELL DISEASE” (Genzyme Corporation, priority 2020, published 2023)

What was measured:
[1] = system: human red blood cells; experiment: Human Cell-Based Assay; details: Erythrocyte; human whole blood suspension, 37° C., 24 h; metabolites (2,3-BPG, ATP) by LC/MS; read-out: hRBC EC50
Protocol: Example B3. Human Cell-Based Assay
The following materials were used in this assay: DMSO; Hemox buffer (30 mM TES, 135 mM NaCl, 5 mM KCl, pH 7.4); Inosine (100 mM in hemox buffer); Glucose (1 M in water); human red blood cells; LC/MS Optima grade methanol; LC/MS Optima grade water; and Incubation buffer (30 mM TES, 135 mM NaCl, 5 mM KCl, 50 mM inosine, 20 mM glucose pH 7.4).
Test compounds were loaded onto a 96-well plate (final concentration of DMSO was 1%). 10 mL whole blood was resuspended with an equivalent amount of 2× incubation buffer to make 25% het & 50% plasma solution. The final solution contains 10 mM glucose and 25 mM inosine. The blood suspension (100 uL) was added to the wells of the plate. The plate was covered with an adhesive foil cover and plastic lid, and incubated at 37° C. for 24 h. The samples were extracted through an SPE column and the metabolites (2,3-BPG, ATP) were analyzed by LC/MS.

[2] = target: human Bisphosphoglycerate mutase (hBPGM) (Homo sapiens (Human), UniProt P07738); experiment: BPGM Phosphatase Assay; format: biochemical; details: Table 6 additional results; read-out: huBPGM: phosphatase Enzyme EC50
Protocol: Solutions of the test compounds were then added to the plate and the DMSO content was normalized across the plate. The plate was incubated at RT for 15 min. Next, the substrate 2,3-BPG (5 μL) was added to all the wells, and the plate was sealed and incubated for 24 hr at RT. After incubation, BIOMOL green dye (40 μL) was added to all the wells, the plate was shaken to mix, and the plate was incubated at RT for 20-30 min.

[3] = target: hBPGM (Homo sapiens (Human), UniProt P07738); experiment: BPGM Synthase Assay; format: biochemical; details: Table 6 additional results; read-out: huBPGM: synthase Enzyme IC50
Procedure, shortened: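 BPGM (5 nM) with GAPDH (0.4 U/mL) was incubated with compound for 30 min at RT in pH 7.4 Tris buffer with 3.23 mM KH2PO4 and 1 mM DTT. Reaction ran 60 min with NAD, 3PG and GAP (substrate solution 2 mM, 20 μM and 800 μM). After koningic acid stop, NADH fluorescence was read, then resorufin from diaphorase/resazurin coupling.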

Chain of hBPGM (P07738 whole entry, looked up): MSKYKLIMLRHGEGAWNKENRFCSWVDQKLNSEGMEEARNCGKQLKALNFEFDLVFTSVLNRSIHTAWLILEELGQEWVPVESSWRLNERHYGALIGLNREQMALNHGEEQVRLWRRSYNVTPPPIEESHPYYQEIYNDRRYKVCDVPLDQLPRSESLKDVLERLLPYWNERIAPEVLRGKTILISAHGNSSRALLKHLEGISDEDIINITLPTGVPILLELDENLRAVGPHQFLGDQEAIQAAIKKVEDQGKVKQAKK
Chain of human Bisphosphoglycerate mutase (hBPGM) (P07738 whole entry): as the sequence (P07738 whole entry, looked up) above

| SMILES | EC50 [1] [µM] | EC50 [2] [nM] | IC50 [3] [nM] |
| --- | --- | --- | --- |
| Cc1nc(COc2ncccn2)sc1-c1cccc(-c2ccc(S(=O)(=O)CC(=O)O)cc2)n1 [compound 2, 2-[4-[6-[4-methyl-2-(pyrimidin-2-yloxymethyl)thiazol-5-yl]-2-pyridyl]phenyl]sulfonylacetic Acid] | > 100 |  |  |
| COC(=O)NCc1nc(C)c(-c2csc(-c3c(F)cc(C(=O)O)cc3F)n2)s1 [Example 225] |  | 7300 | 830 |
| Cc1nc(CN)sc1-c1csc(-c2ccc(C(=O)O)c(O)c2)c1 [Example 244] |  | > 25000 | 840 |
| COC(=O)C(=O)NCc1nc(C)c(-c2csc(-c3cc(O)c(C(=O)O)cc3F)n2)s1 [Example 201] |  | 640 | 110 |
| COC(=O)NCc1nc(C)c(-c2csc(-c3cc(O)c(C(=O)O)c(F)c3F)n2)s1 [Example 135] |  | 70 | 40 |
| COC(=O)NCc1nc(C)c(-c2csc(-c3ccc(C(=O)O)cc3)n2)s1 [Example 239] |  | > 25000 | 730 |
| Cc1ccc(Cc2nc(C)c(-c3cccc(-c4ccc(C(=O)O)c(O)c4)c3)s2)cn1 [Example 257] |  | 160 | 360 |
| Cc1nc(CNC(=O)C2CCN(C)C2)sc1-c1csc(-c2cc(O)c(C(=O)O)cc2F)n1 (stereo not shown) [Example 127] |  | 420 | 490 |
| Cc1nc(COc2ncccn2)sc1-c1cccc(-c2ccc(C(=O)O)c(C#N)c2)n1 [Example 78] |  | 70 | 180 |
| Cc1nc(COc2ccccn2)sc1-c1cccc(-c2ccc(C(=O)O)c(O)c2)c1 [compound 4, 2-hydroxy-4-[3-[4-methyl-2-(2-pyridyloxymethyl)thiazol-5-yl]phenyl]benzoic Acid] | 23.5 |  |  |
| Cc1nc(CNC(=O)C(C)(C)C)sc1-c1csc(-c2cc(O)c(C(=O)O)cc2F)c1 [Example 139] |  | 90 | 84 |
| Cc1nc(CNC(=O)c2cccnn2)sc1-c1cccc(-c2ccc(C(=O)O)cc2)c1 [Example 71] |  | > 25000 | 560 |
| Cc1nc(Cc2cccnc2)sc1-c1csc(-c2ccc(C(=O)O)c(O)c2)n1 [Example 250] |  | 290 | 250 |
| Cc1nc(N)sc1-c1csc(-c2cc(O)c(C(=O)O)cc2F)n1 [Example 210] |  | 830 | 930 |
| Cc1nc(Cc2ccn(C)n2)sc1-c1csc(-c2ccc(C(=O)O)c(O)c2)c1 [Example 216] |  | 200 | 190 |
| Cc1nc(CNC(=O)c2cccnn2)sc1-c1cccc(-c2ccc(C(=O)O)c(O)c2)n1 [Example 148] |  | 280 | 250 |
| COC(=O)NCc1nc(C)c(-c2csc(-c3ccc(C(=O)O)c(O)c3)n2)s1 [Example 213] |  | 140 | 130 |
| Cc1nc(Cc2ccccn2)sc1-c1cccc(-c2ccc(C(=O)O)c(O)c2)c1 [Example 282] |  | 110 | 750 |
| Cc1nc(CN)sc1-c1csc(-c2cc(O)c(C(=O)O)cc2F)c1 [Example 251] |  | 400 | 270 |
| Cc1nc(CNC(=O)C2CC2)sc1-c1cccc(-c2ccc(C(=O)O)c(O)c2)c1 [Example 276] |  | 590 | 480 |
| Cc1nc(Cn2cccn2)sc1-c1csc(-c2cc(O)c(C(=O)O)cc2F)n1 [Example 248] |  | 110 | 110 |
| Cc1nc(Cn2cccn2)sc1-c1cccc(-c2cc(O)c(C(=O)O)cc2F)c1 [Example 262] |  | 510 | 530 |
| Cc1nc(CN2CCCC2=O)sc1-c1cccc(-c2ccc(C(=O)O)c(O)c2)c1 [Example 260] |  | 5600 | 1400 |
| Cc1nc(CNc2ncccn2)sc1-c1csc(-c2cc(O)c(C(=O)O)cc2F)n1 [Example 149] |  | 70 | 30 |
| Cc1nc(CNC(=O)C2CC2)sc1-c1ccc(-c2ccc(C(=O)O)c(O)c2)s1 [Example 245] |  | 820 | 690 |
| Cc1nc(C)c(-c2csc(-c3cc(O)c(C(=O)O)cn3)n2)s1 [Example 284] |  | 2900 | 2800 |
| Cc1nc(CNC(=O)c2cccnc2)sc1-c1csc(-c2cc(O)c(C(=O)O)cc2F)n1 [Example 199] |  | 320 | 67 |
